Laboratory results taken from patent US4780281A, “Method for assay of peroxidase enzyme or reducing substrate activity” (Wayne State University, priority 1985, dated 1988).

How the values were obtained:
[1] = target: T1, Horseradish peroxidase (HRP) (Armoracia rusticana, UniProt P00433); test: Reducing substrate specificity assay (HRP-catalysed reduction of PPHP to PPA, HPLC); type: biochemical; details: for Index = concentration PPA/(concentration PPA+concentration PPHP): 100 microM PPHP, 0.1 M potassium citrate pH 5.5, 0.2 mM Tween-20, 25° C., 6 minutes, triplicate
T1 construct: purchased Sigma Chemical Corporation Type VI
T1 sequence (P00433 31-338 limits assumed): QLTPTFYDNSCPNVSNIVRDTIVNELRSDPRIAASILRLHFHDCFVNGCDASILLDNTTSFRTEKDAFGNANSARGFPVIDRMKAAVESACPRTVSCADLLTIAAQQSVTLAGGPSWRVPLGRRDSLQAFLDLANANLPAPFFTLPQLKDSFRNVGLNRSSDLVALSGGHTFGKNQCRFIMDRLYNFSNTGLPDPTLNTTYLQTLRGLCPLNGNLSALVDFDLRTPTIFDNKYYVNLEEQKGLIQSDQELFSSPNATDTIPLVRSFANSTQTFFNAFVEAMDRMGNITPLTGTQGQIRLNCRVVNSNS
Procedure: Incubations were performed in triplicate with a 25° C. shaker bath in 16×150 mm disposable glass test tubes. 60 nM HRP was incubated at 25° C. in 0.1 M potassium citrate buffer, […] containing 0.2 mM Tween 20, with 100 microM PPHP and 200 microM potential reducing substrate. The index value is defined as, Index=concentration PPA/(concentration PPA+concentration PPHP). Most reducing substrates were prepared daily as 8 mM stocks in either water, methanol, or methanol:water (1:1 v/v). DPBF was dissolved in acetone. Uric acid was dissolved in DMSO. Epinephrine required titration with dilute hydrochloric acid prior to dissolution in methanol. Indoleacetic acid, tryptophan, cysteine, and methionine were titrated with dilute potassium hydroxide prior to dissolution in methanol:water (1:1 v/v).
For the data in Table 1 hereinafter, reducing substrates (50 microliters of 8 mM stocks--see Table 1 for preparation) were transferred into 1.9 ml of 0.1 M potassium citrate buffer, pH 5.5, containing 0.2 mM Tween-20 and allowed to thermally equilibrate for 10 minutes. HRP (24 microl of a 5 microM stock) was added to each trial and preincubated for three minutes prior to the addition of PPHP (25 microl of 8 mM stock in methanol). Incubations were stopped at 6 minutes by pouring mixtures onto Baker SPE System columns (3 ml octyldecylsilyl, from J. T. Baker & Co.). The columns were prepared prior to use by passing 3×3 ml aliquots of water through the columns with the Baker SPE vacuum system. At the stop time, an individual trial was poured onto the column and aspirated to near dryness. Each individual trial was set aside until the reminder of the trials were treated in the same manner. After all incubation trials were partitioned onto the SPE columns, each individual incubation tube was washed with 2 ml of 0.2 mM Tween 20 in distilled water and poured onto the corresponding SPE column. This Tween 20/water wash was aspirated to near dryness with vacuum. Analytes were eluted into 12×76 mm disposable glass test tubes with 2×1 ml aliquots of methanol (HPLC grade, Fisher Scientific Co.). The sample collection rack for the Baker 10 SPE System was modified to accommodate these 12 mm diameter tubes. The SPE columns were aspirated dry at this point and discarded. An internal chromatographic standard of p-nitrobenzyl alcohol (25 microl of 8 mM stock solution in methanol) was added to each methanol eluent, mixed by vortexing, and then clarified by filtration through a 0.45 micron nylon Swinney type filter (Rainin Instrument Corp.). The filtered eluents were used directly for chromatographic analysis.
The Initial incubation conditions were 0.1 M potassium citrate buffer, pH 5.5, with 0.2 mM Tween 20, 200 microM reducing substrate, 60 nM HRP and […] PPHP (structure 1).
Quantitation was determined by adding an internal standard (p-nitrobenzyl alcohol: annotated as I.S. on chromatograms) and ratioing peak areas. Chromatograms are 40 microliters injections onto a 5 micron Zorbax octylsilyl reverse-phase column (DuPont Instrument Corp.) with an isocratic elution mobile of 56% v/v methanol in water at 2 ml per min. U.V. monitoring was with a fixed 254 nm detector (Varian 5000, Varian Instrument Corp.). Vertical numbers are associated with peak retention times in minutes (the integrator used was a Vista 402 System, Varian Instruments).
Analyte concentrations were calculated by an internal standard method of calculation. This required individual incubation chromatograms to be compared to a calibration chromatogram generated by chromatographing a 40 microliter sample aliquot of a solution of PPHP as described under calculations.

HRP isoenzymes = details: similar preparation of HRP isoenzymes, phenylperoxyacetic acid; cited from earlier work
Prostaglandin H Synthase = target: T2, Prostaglandin H Synthase (Ovis aries, UniProt P05979); test: Reducing substrate efficiency for PPHP reduction, conditions as for Table 1; type: biochemical
T2 sequence (P05979 25-600): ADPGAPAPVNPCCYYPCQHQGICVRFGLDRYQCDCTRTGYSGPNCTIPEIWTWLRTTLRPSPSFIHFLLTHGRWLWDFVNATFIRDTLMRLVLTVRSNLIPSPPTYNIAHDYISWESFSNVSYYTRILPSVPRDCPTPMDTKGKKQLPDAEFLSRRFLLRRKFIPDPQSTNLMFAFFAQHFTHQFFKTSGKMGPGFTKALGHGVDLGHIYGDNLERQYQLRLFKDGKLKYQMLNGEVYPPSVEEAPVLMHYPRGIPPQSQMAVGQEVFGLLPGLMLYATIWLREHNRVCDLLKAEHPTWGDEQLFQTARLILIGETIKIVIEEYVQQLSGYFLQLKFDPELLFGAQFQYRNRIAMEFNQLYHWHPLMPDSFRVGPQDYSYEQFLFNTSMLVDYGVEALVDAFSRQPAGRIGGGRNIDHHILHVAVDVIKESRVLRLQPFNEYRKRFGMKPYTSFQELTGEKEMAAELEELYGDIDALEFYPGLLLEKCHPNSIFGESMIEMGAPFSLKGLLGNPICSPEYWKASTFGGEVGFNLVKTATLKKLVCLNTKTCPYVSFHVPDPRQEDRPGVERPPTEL

HRP = target: T3, HRP (Armoracia rusticana, UniProt P00433); test: Steady-state kinetic assay (PPA production, SPE/HPLC); type: biochemical, horseradish; details: HRP with phenol as reducing substrate
T3 construct: purchased Sigma Chemical Corporation Type VI
T3 sequence (P00433 31-338 limits assumed): T1 sequence (P00433 31-338 limits assumed)
Procedure: (§2) The incubations were terminated at 2, 4, and 8 minutes by pouring the incubations onto SPE columns as described in Methods. […] The data points are the average of triplicates. […] All buffers contained 0.2 mM Tween-20. Incubations were stopped at 4 minutes by pouring onto SPE columns as described in Methods. Each data point is the average of triplicates. […] Incubations were stopped at 4 minutes by pouring on SPE columns as described in Methods. PPA concentrations were converted into velocities by dividing by the incubation time and assuming linear steady-state velocities over the first 8 minutes (see FIG. 3). Five replicates of each phenol concentration were assayed. Km and Vmax were determined by linear regression analysis upon the non-averaged data points.
(§3) We designed the assays with 4 minute termination times converting either the concentration of PPHP or PPA into velocities.

cytochrome P-450 = test: PPHP as peroxidase substrate; type: biochemical
From the text: (§1) A practical method is described for the determination of peroxidase enzyme activity that monitors the ability of enzyme preparations to reduce PPHP in the presence of a reducing substrate. […] The alcohol product and hydroperoxide substrate are conveniently separated by HPLC and reliably quantitated by ultraviolet detection. These properties make PPHP an ideal substrate for the assay. […] Thus, the procedure is a general assay for peroxidase activity.

catalase = target: T4, catalase (Homo sapiens, UniProt P04040); test: PPHP as peroxidase substrate; type: biochemical
T4 sequence (P04040 2-527 limits assumed): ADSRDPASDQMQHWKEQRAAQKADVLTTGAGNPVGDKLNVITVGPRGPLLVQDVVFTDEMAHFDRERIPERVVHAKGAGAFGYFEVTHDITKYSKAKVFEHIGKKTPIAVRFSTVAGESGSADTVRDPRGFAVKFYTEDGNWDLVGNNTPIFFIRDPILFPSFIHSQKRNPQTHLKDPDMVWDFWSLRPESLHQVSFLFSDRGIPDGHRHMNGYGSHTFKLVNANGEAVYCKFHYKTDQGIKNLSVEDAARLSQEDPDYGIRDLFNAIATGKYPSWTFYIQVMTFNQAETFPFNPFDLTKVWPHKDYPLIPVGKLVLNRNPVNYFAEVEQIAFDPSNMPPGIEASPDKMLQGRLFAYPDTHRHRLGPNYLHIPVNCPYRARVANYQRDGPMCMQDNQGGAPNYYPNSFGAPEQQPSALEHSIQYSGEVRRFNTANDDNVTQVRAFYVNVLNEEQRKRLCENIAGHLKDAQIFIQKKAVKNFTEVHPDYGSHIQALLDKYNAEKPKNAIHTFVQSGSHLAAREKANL
From the text: as §1

glutathione peroxidase = target: T5, glutathione peroxidase (Homo sapiens, UniProt P07203); test: PPHP as peroxidase substrate; type: biochemical
T5 sequence (P07203 1-203): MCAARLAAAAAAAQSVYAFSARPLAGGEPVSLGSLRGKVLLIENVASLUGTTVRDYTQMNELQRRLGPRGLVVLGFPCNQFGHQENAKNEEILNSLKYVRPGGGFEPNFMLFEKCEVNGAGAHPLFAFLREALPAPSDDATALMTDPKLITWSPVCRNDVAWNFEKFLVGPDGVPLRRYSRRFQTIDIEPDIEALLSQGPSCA
From the text: as §1

lactoperoxidase = lactoperoxidase (Bos taurus, UniProt P80025); test: PPHP as peroxidase substrate; type: biochemical
From the text: as §1

Stability of PPHP = type: physicochemical; details: protected from light and metals
Solubility of PPHP = type: physicochemical; details: aqueous buffers
HRP compound II = target: T6, HRP compound II (Armoracia rusticana, UniProt P00433); details: pH 8.11; read-out: Km for the reaction with HRP compound II; cited from earlier work
T6 sequence (P00433 31-353): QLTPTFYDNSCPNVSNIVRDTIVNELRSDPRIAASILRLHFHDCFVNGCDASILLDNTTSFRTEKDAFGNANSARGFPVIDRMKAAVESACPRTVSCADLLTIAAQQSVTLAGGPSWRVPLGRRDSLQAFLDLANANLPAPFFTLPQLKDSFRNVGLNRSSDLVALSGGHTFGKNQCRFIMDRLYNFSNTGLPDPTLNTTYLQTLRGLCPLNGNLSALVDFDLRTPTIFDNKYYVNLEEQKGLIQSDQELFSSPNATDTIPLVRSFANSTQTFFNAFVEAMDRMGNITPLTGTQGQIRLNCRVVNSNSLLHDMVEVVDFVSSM

[2] = substrate: OOCCC/C=C/c1ccccc1; test: Spectrophotometric assay of Chance & Maehly for guaiacol oxidation; type: biochemical, horseradish; details: other: estimated
From the text: Apparent Km values for reducing substrates and enzymatic turnover numbers are readily determined by the steady-state kinetic assay.

[3] = substrate: Oc1ccccc1; test: Steady-state kinetic assay (PPA production, SPE/HPLC); type: biochemical, horseradish; details: other: 2.5 nM HRP, 100 microM PPHP, pH 5.5, 4 minutes
Procedure: as §2, §3

[4] = 60 nM HRP, 200 microM reducing substrate

For Oc1cccc(O)c1O [Pyrogallol, pyrogallol], the “Index = concentration PPA/(concentration PPA+concentration PPHP)” value [1, 4] is listed as 0.97 ± 0.01 and the “turnover for pyrogallol oxidation” value (HRP isoenzymes) is listed as 18500 min⁻¹.

In the case of Oc1ccccc1 [Phenol, phenol], the “Index of Efficiency of Reducing Substrates” value (Prostaglandin H Synthase; Prostaglandin H synthase, under the conditions for Table 1) is reported as “.51”, the “Index = concentration PPA/(concentration PPA+concentration PPHP)” value [1, 4] is reported as 0.97 ± 0.01 and the “reducing substrate quality for HRP (FIG. 1)” value ([1]; 200 microM reducing substrate, 60 nM HRP, pH 5.5) is reported as “good”. The “turnover number of PHP reduction” value (HRP) was 10500 min.

In the case of OOCCC/C=C/c1ccccc1 [PPHP, 1-hydroperoxy-5-Phenyl-4-pentene], the “suitability as peroxidase substrate” value (cytochrome P-450) is reported as “excellent substrate”, the “suitability as peroxidase substrate” value (catalase) is reported as “excellent substrate” and the “suitability as peroxidase substrate” value (glutathione peroxidase) is reported as “excellent substrate”. For the same molecule, the “suitability as peroxidase substrate” value (lactoperoxidase) was “excellent substrate”, the “suitability as peroxidase substrate” value (Prostaglandin H Synthase; protaglandin H (PGH) synthase) was “excellent substrate” and the “suitability as peroxidase substrate” value ([1]; HRP) was “excellent substrate”. For the same molecule, the stability (Stability of PPHP) was “stable if protected from light and metals” and the solubility (Solubility of PPHP) was “soluble in aqueous buffers”.

In the case of Cc1ccc(O)cc1 [p-cresol], the Km (HRP compound II) is given as roughly 180 µM.

B1: HRP (Armoracia rusticana) (protein)
chain: T1 sequence (P00433 31-338 limits assumed)
notes: purchased Sigma Chemical Corporation Type VI
With B1 the Km [2] was 18 µM and the Km [3] was 252 µM.
